Data reported in patent US8198302B2 (OXiGENE, Inc., priority 2004, dated 2012).
Blank lines part the entries; values can stand above or below the compound they belong to.

Legend:
MHEC-5T tumors = assay: Reduction in tumor blood flow / functional tumor vessels (fluorescent beads); assay type: in vivo, mice; details: for reduction in tumor blood flow: 24 hr post-drug
Experimental: (§1) Catechols were dissolved in 50% DMSO (2 mg/kg) prior to intravenous (iv) administration (i.v.) to tumor-bearing mice. MHEC-5T tumors were established by subcutaneous injection of 0.5×10^6 cultured MHEC5-T cells (German Collection of Microorganisms and Cell Culture, Braunschweig, Germany) into the right flank of Fox Chase CB-17 severe combined immunodeficient (SCID) mice. Tumor grafts grew palpable within one week and reached the limited size (15×15 mm) within 10 days. Tumor bearing mice were injected intraperitoneally with saline control or various dosages of CA1P or CA4P after the transplanted tumor reached a size of 300 mm^3 (a size without development of necrosis). Twenty-four hours later they were injected with 0.25 ml of fluorescent FluoSphere beads (0.1 μm beads conjugated with blue fluorescent tag (F-8789, Molecular Probes, Eugene, Oreg.) and diluted 1:6 in physiological saline) in the tail vein, and sacrificed after 3 minutes. Tumors were then excised for cryosections. Cryosections of 8 μm thickness were directly examined under a fluorescent microscope. Functional blood vessels were indicated by blue fluorescence from injected microbeads. For quantification, three sections from three tumors treated in each group were examined and in each section, more than 70% of the area was automatically recorded with a microscopic digital camera at ×10 magnification. A computer program named Stage Pro (Media Cybernetics, Md.) was used to control the picture recording. Image analysis was performed with Image Plus software (Media Cybernetics, Md.). The results were expressed as vessel area per mm^2 in percentage of the control in Table 2.
as §1, with “The effect of CA1P on tumor blood flow was evaluated by quantifying the number of functional tumor vessels” for “Catechols were dissolved”, “treated murine tumors.” for “50% DMSO (2 mg/kg) prior to intravenous (iv) administration (i.v.) to tumor-bearing mice.”, “as in Example 4c.” for “by subcutaneous injection of 0.5×10^6 cultured MHEC5-T cells (German Collection of Microorganisms and Cell Culture, Braunschweig, Germany) into the right flank of Fox Chase CB-17 severe combined immunodeficient (SCID) mice. Tumor grafts grew palpable within one week and reached the limited size (15×15 mm) within 10 days.”, “MD)” for “Md.)”, “MD).” for “Md.).”, “control.” for “control in Table 2.”

tumor cells = assay: Tumor cell cytotoxicity, MTT assay; assay type: cell-based
Experimental: Exponentially growing tumor cells were treated with the following compounds for 24 hours. Insoluble compounds were formulated in a small amount (0.3%) of DMSO for biological evaluation. Cell viability was determined by the calorimetric MTT assay using 3(4,5-dimethylthiazol-2-yl)-2,5-diphenyl-2H-tetrazolium bromide according to well-established procedures (see Berridge, et al. (1996) for a general protocol of this type of assay).

[1] = Recovery of CA1 from plasma; assay type: in vitro ADME; details: in the presence of ascorbic acid in the extraction mixture
Excerpt: In blood, the ortho catechol CA1 is susceptible to oxidation. […] The recovery of CA1 was resolved by incorporation of ascorbic acid as an antioxidant in the extraction mixture. In the presence of ascorbic acid the recovery of CA1 from plasma was increased to approximately 90%.

[2] = test system: murine adenocarcinoma CaNT; assay: Functional vascular volume of tumor vessels (Hoechst 333342); assay type: in vivo, mice; details: 1 mg/kg i.p. (lowest dose), 24 hours
Experimental: The effect of CA1P on tumor blood flow was evaluated by quantification of the functional volume of tumor vessels in treated murine tumors using a procedure previously described in detail and incorporated by reference herein (Smith K A, Br. J. Cancer, 57:247-253, 1988). The murine adenocarcinoma CaNT was grown subcutaneously on the back of 12- to 16-week old CBA/Gy fTO mice. Tumors were initiated by the injection of 0.05 ml of a crude tumor cell suspension prepared from a donor mouse. Animals were selected for treatment after 3 or 4 weeks, when tumors had reached a geometric mean diameter of 5 to 6.5 mm. CA1P and CA4P were dissolved in 0.9% saline at various concentrations and injected intraperitoneally into tumor bearing mice. Each treatment group consisted of between five and nine mice. A control treatment group was injected with 0.9% saline. At 24 hours post-injection, each mouse was injected intravenously with a 10 mg/kg dose of the fluorescent DNA-binding dye Hoechst 333342 and sacrificed 1 minute later. Tumors were immediately excised and bisected. Frozen tumor sections were cut at three levels and viewed under UV excitation where the fluorescent staining of perivascular cells identified perfused vessels. Vascular volumes were quantified based on a random point scoring system previously described and incorporated by reference herein (Chalkley H W, J. Natl Cancer Institute, 4: 47-53, 1943). All estimates were based on counting 100 fields from sections cut at each of the 3 different levels and the calculated vascular volumes were expressed as a percentage of the mean value for control tumors.

[3] = test system: murine adenocarcinoma CaNT; assay: Tumor growth control in CaNT murine tumor model; assay type: in vivo, mice; details: single doses of 100, 200, and 400 mg/kg i.p., FIG. 5
Experimental: The murine adenocarcinoma CaNT was grown subcutaneously on the back of 12- to 16-week old CBA/Gy fTO mice. Tumors were initiated by the injection of 0.05 ml of a crude tumor cell suspension prepared from a donor mouse. Animals were selected for treatment after 3 or 4 weeks, when tumors had reached a geometric mean diameter of 5 to 6.5 mm. CA1P and CA4P were dissolved in 0.9% saline at various concentrations and injected intraperitoneally into tumor bearing mice. Each treatment group consisted of between five and nine mice. A control treatment group was injected with 0.9% saline.

tumor xenografts = assay: Evaluation of tumor xenografts treated with CA1P; assay type: in vivo
Excerpt: It is expected that in the highly oxygenated regions of the tumor, such as the tumor rim, that are resistant to tumor blood shutdown, CA1 is readily oxidized to its corresponding quinone, and is able to render a single agent response due to this second mechanism of action.

[4] = Stability of quinone product (TLC and NMR); assay type: physicochemical; details: in D7 DMF, following the initiation of the reaction
Experimental: To a solution of Combretastatin A-4 (0.032 g, 0.100 mmol; OXiGENE, Inc.) was added Iodoxybenzoic acid (0.028 g, 0.099 mmol) in D7 DMF (4 ml) with stirring by vortex for ½ hr. Completion of the reaction was indicated by the disappearance of the initial yellowish slurry and the appearance of a clear solution of a deep red color. ^1H-NMR was performed immediately as the quinone product was highly unstable and degraded within a ½ hr following the initiation of the reaction, as indicated by TLC and NMR.

[5] = Reaction of ortho-quinone with glutathione and ascorbate (stopped-flow, HPLC); assay type: physicochemical; details: stopped-flow rapid mixing, FIG. 1A
Excerpt: The formation of each quinone was examined by reacting its corresponding catechol with excess FeCl3/H2SO4 and monitoring the reaction by HPLC. The identity of each quinone was confirmed by HPLC-MS (mass 330, λmax 312, 422 nm).

recovery [1]: ~90%
SMILES: COc1ccc(/C=C\c2cc(OC)c(OC)c(OC)c2)c(O)c1O [CA1, Combretastatin A-1]
Blood Flow at 10 mg/kg (% vessel area of control) (MHEC-5T tumors; 10 mg/kg, MHEC-5T tumor-bearing SCID mice, 24 hours after dosing): 30 % vessel area of control | IC50 (tumor cells; tumor cells treated for 24 hours): 0.0046 µM

SMILES: COc1cc(/C=C\c2ccc(OC)c(OP(=O)(O)O)c2OP(=O)(O)O)cc(OC)c1OC [CA1P, Combretastatin A-1 diphosphate]
ED50 (vascular effect) (MHEC-5T tumors; functional vessel number per mm^2, i.p., 24 hr, MHEC-5T tumors): 3 mg/kg | blood flow in the peripheral region of tumors (MHEC-5T tumors; periphery = rim of width 10% of the tumor diameter): reduced the blood flow in the peripheral region as well | reduction in tumor blood flow (MHEC-5T tumors; single i.p. injection 3 mg/kg, MHEC-5T tumors): 50% | reduction in tumor blood flow (MHEC-5T tumors; single i.p. injection 6 mg/kg, MHEC-5T tumors): 74% | reduction in tumor blood flow (MHEC-5T tumors; single i.p. injection 50 mg/kg, MHEC-5T tumors): 90% | blood flow in the central region of tumors (MHEC-5T tumors; spatial distribution of blood vessel shutdown): blood flow reduction | antiproliferative activity against tumor cells in vitro (tumor cells; in comparison to CA4P): inferior | reduction of the percentage of functional vasculature in the tumor [2]: over 50% | effect on tumor growth [3]: significant tumor growth delay | tumor cell destruction by location (tumor xenografts): not only destroyed centrally located tumor cells but also cells located at the periphery of the tumor

SMILES: COC1=CC=C(/C=C\c2cc(OC)c(OC)c(OC)c2)C(=O)C1=O [CA-1 Ortho-Quinone]
time to degradation of quinone product [4]: ½ | reaction with glutathione and ascorbate [5]: react rapidly
